Source: patent US20070167510A1, “Methods for inhibiting osteoclastogenesis” (priority 2006, published 2007)

Assays:
[1] = system: MIP-1α; test: Bio-plex cytokine assay of osteoclast culture supernatants: MIP-1α; format: cell-based, human; settings: day four; controls 12,000
From the text: […] of IL-1α, IL-1β, IL-2, IL-3, IL-4, IL-5, IL-6, IL-7, IL-8, IL-9, IL-10, IL-13, IL-15, IL-17, IL-12p40, IFNα, IFNγ, TNF-α, TNFR-I, TNFR-II, G-CSF, GM-CSF, MCP-1, MIP-1α, MIP-1β, MIG, IP-10, EOTAXIN, RANTES, DR5, EGF, VEGF, FGF-b, and HGF by Bio-plex Cytokine Assay (BIO-RAD Laboratories, USA).

[2] = system: bone marrow cells from healthy donor on whale dentin slices; test: Osteoclastic bone resorption on dentin slices; format: cell-based, human; settings: 3 weeks
Description: Bone marrow cells from healthy donor (2×10^5 cells/well) were seeded on whale dentin slices in 96-well multi-plates at 100 μl/well in α-MEM medium containing 20% horse serum. In addition, 10 ng/ml M-CSF and 50 ng/ml RANKL were added. Half media changes were performed twice a week with fresh media. […] Culture was continued for 3 weeks at 37° C. in an incubator of 5% CO2-air. After 3 weeks, dentin slices were stained with TRAP staining to confirm the osteoclast formation. Then, bone resorption lacunae were stained with hematoxylin. Pit area was quantified by using the public domain NIH ImageJ program. Fixed small representative areas on dentin slices selected and the mean resorption areas were determined.

[3] = system: IκBα; test: Western blot of IκBα phosphorylation and degradation, MM.1S; format: cell-based, human
Description: For detection of p65 translocation, cellular nuclear and cytoplasmic extracts were prepared with Nuclear and Cytoplasmic Extraction Reagents (Pierce, Rockford, Ill.). Cell lysates (20-40 μg) were subjected to 10% sodium dodecyl sulfate-polyacrylamide gel electrophoresis and transferred to PVDF membrane (Millipore, Danvers, Mass.). The blots were probed with anti-p65, anti-phospho p65, anti-IκB-α, anti-phospho IκB-α, or anti-phospho IKK-γ (all from Cell Signaling, Beverly, Mass.), and beta-actin antibody (Amersham, Piscataway, N.J.). Immune complexes were detected using enhanced chemiluminescence (Amersham).

[4] = system: CFU-GM colony cells (osteoclast precursors); test: Osteoclast formation assay with purified CFU-GM cells; format: cell-based, human
[5] = system: MM.1S cells; test: Proliferation assay (3H-thymidine incorporation), MM.1S; format: cell-based, human; settings: 48 hours
Description: (§1) DNA synthesis was measured by ^3H-thymidine incorporation (3H-TdR; NEN Products, Zaventem, Belgium). Cells were pulsed with ^3H-thymidine (1 μCi/well) during the last 8 hours of culture, harvested onto glassfibre filter mats (Wallac, Gaithersburg, Md.) with an automatic cell harvester (Tomtec Harvester 960 MachIII), and counted using Wallac TriLux Beta plate scintillation counter. All experiments were performed in triplicate.

[6] = system: IFN-γ; test: Bio-plex cytokine assay of osteoclast culture supernatants: IFN-γ; format: cell-based, human; settings: three weeks treatment
Description: (§2) Supernatants collected on day 5, 9, 12, 16 and 21 were analyzed for expression of IL-1α, IL-1β, IL-2, IL-3, IL-4, IL-5, IL-6, IL-7, IL-8, IL-9, IL-10, IL-13, IL-15, IL-17, IL-12p40, IFNα, IFNγ, TNF-α, TNFR-I, TNFR-II, G-CSF, GM-CSF, MCP-1, MIP-1α, MIP-1β, MIG, IP-10, EOTAXIN, RANTES, DR5, EGF, VEGF, FGF-b, and HGF by Bio-plex Cytokine Assay (BIO-RAD Laboratories, USA).

[7] = system: RAW 264.7 cells; test: RANKL-induced OCL differentiation of RAW 264.7 cells (TRAP); format: cell-based, murine; settings: 5 days, RANKL 50 ng/ml, SDX-101 75 μM, SDX-308 7.5 μM
Description: (§3) The culture was incubated for a total of 3 weeks at 37° C. in an incubator of 5% CO2-air. OCL formation was assessed by staining with monoclonal antibody 23c6, which recognizes the CD51/61 dimer on the osteoclast vitronectin receptor (generously provided by Michael Horton, Rayne Institute, Bone and Mineral Center, London, UK), using a Vectastatin-ABC-AP kit (Vector Laboratories, Inc. Burlingame, Calif.). The 23c6^+ multinucleated osteoclasts containing 3 or more nuclei per osteoclast were scored using an inverted microscope. For RAW 264.7 cells, OCL differentiation assay was carried out in 96-well plates. […] Half media change was performed every 2-3 days by replacing with fresh medium containing RANKL with or without tested drugs. Cells were fixed and stained with TRAP-staining kit (Sigma-Aldrich) according to the manufacturer's instructions. TRAP-positive multinuclear cells (>3 nuclei) were counted under the inverted microscope.

[8] = system: MM cell lines and freshly isolated primary MM cells; settings: Yasui H et al., 2005; cited from earlier work
[9] = system: MC-42 cells (MC3T3-E1 pre-osteoblastic); test: Osteoblast differentiation: ALP activity; format: cell-based, mouse; settings: SDX-101 75 μM, SDX-308 7.5 μM, 24 hours
From the text: (§4) Cells were then harvested for luciferase and ALP (alkaline phosphatase) activity assay. Luciferase and ALP activity were normalized to total protein content of the sample (Xiao G et al. (1997) Mol. Endocrinol. 11:1103-13). […] Samples were then stained using the Von Kossa method (Xiao G et al. (1998) J. Biol. Chem. 273:32988-94).

[10] = system: MC-42 cells; test: Osteoblast mineralization (von Kossa); format: cell-based, mouse; settings: 48 hours, 5.0 mM inorganic phosphate
From the text: as §4

[11] = system: non-adherent mononuclear bone marrow cells from multiple myeloma patients; test: Osteoclast formation assay, MM patient bone marrow; format: cell-based, human
Description: (§5) Non-adherent mononuclear cells (10^5 cells/well) from either healthy donor or multiple myeloma patients, as well as purified human CD34^+ cells, were seeded in 96-well multi-plates at 100 μl/well in α-MEM medium containing 20% horse serum, 10 ng/ml M-CSF and 50 ng/ml RANKL. […] Half media change was carried out twice a week.
as §3

[12] = system: OPM2 cells; test: Proliferation assay (3H-thymidine incorporation), OPM2; format: cell-based, human; settings: 48 hours
Description: as §1

[13] = system: RAW 264.7 cells; test: Cellular viability of RAW 264.7 cells; format: cell-based, mouse; settings: data not shown
[14] = system: MIG (monokine induced by IFN-gamma); test: Bio-plex cytokine assay of osteoclast culture supernatants: MIG; format: cell-based, human; settings: three weeks treatment
Description: as §2

[15] = system: RPMI-8226 cells; test: Proliferation assay (3H-thymidine incorporation), RPMI-8226; format: cell-based, human; settings: RPMI-1822 / RPMI cells as printed, 48 hours
Description: as §1

[16] = system: CD34+ cells (hematopoietic progenitors); test: Colony assays in methylcellulose; format: cell-based, human; settings: 14 days
Description: Methocult GF H4434 contained the following hematopoietic growth factors: recombinant human (rh) Erythropoietin 3 U/ml, rh SCF 50 ng/ml, rh granulocyte-macrophage colony-stimulating factor (GM-CSF) 10 ng/ml, and rh IL-310 ng/ml as well as Methylcellulose (1%), Fetal Bovine Serum 30%, Bovine Serum Albumin (1%), 2-Mercaptoethanol ([…]), and L-glutamine (2 mM). Cells were incubated in at 37° C., 5% CO2 with 95% humidity for 14-16 days. Formation and relative distribution of burst forming unit-erythroid (BFU-E), colony forming unit-macrophages (CFU-M) and colony forming unit-granulocyte, macrophage (CFU-GM) colonies were evaluated by scoring under an inverted microscope. Each colony experiment was carried out in triplicate.

[17] = system: non-adherent mononuclear bone marrow cells from healthy donors; format: cell-based
Description: as §5, §3

CCc1cccc2c3c([nH]c12)[C@@](CC)(CC(=O)O)OCC3 [SDX-101, R-etodolac]
MIP-1α in supernatant [1]: 6,000 pg/ML
measured bone resorption area ([2]; 75 μM, untreated control 8.6): 1.3 mm^2
bone resorption ([2]; SDX-101 75 μM, SDX-308 7.5 μM): inhibited significantly
TNF-induced IκBα phosphorylation and degradation [3]: minor or no obvious effect
osteoclast inhibition by time point of drug addition ([4]; first 1, 2 or 3 weeks or last 1, 2 or 3 weeks): no differences in osteoclast inhibition
osteoclast numbers formed from osteoclast progenitor cells ([4]; purified CFU-GM cells, 21 days): significantly decreased osteoclast numbers
concentration at which DNA synthesis (thymidine incorporation) was significantly inhibited [5]: 10 µM
IFN-γ secretion in osteoclast formation assays [6]: significantly decreased
RANKL-induced OCL formation from RAW 264.7 cells [7]: suppressed
apoptosis [8]: induces apoptosis
ALP activity [9]: did not decrease the ALP activity
mineralization of osteoblasts (von Kossa staining) [10]: did not inhibit mineralization
inhibition of OCL formation, time course of drug addition ([11]; MM patient cells, SDX-101 75 μM, SDX-308 7.5 μM, 3 weeks vs first/last 1 or 2 weeks): significantly higher when drug was added during the entire 3 weeks
inhibition of RANK-L/M-CSF-induced human osteoclastogenesis ([11]; MM patient cultures, 21-day assay, SDX-101 30 to 100 μM, SDX-308 3 to 10 μM): dose-dependent inhibition
concentration at which DNA synthesis (thymidine incorporation) was significantly inhibited [12]: 100 µM
cellular viability, drug alone [13]: no significant effects
MIG secretion in osteoclast formation assays [14]: significantly decreased
concentration at which DNA synthesis (thymidine incorporation) was significantly inhibited [15]: 100 µM
number of the CFU colonies formed compared to untreated cells ([16]; CD34+ cells): not significantly different
interference with hematopoietic lineage commitment ([16]; SDX-101 30, 50, 75 μM, SDX-308 1, 5, 7.5 μM): none of the doses tested for both SDX derivatives interferes
doses exhibiting inhibition of OCL formation ([17]; 3 weeks, RANKL 50 ng/ml, M-CSF 10 ng/ml): over 50 μM
cell death during the 3 week OCL formation assay ([17]; any doses tested): No cell death was observed
inhibition of OCL formation, time course of drug addition ([17]; healthy donor cells, SDX-101 75 μM, SDX-308 7.5 μM, 3 weeks vs first/last 1 or 2 weeks): significantly higher when drug was added during the entire 3 weeks
inhibition of RANK-L/M-CSF-induced human osteoclastogenesis ([17]; healthy donor cultures, 21-day assay, SDX-101 30 to 100 μM, SDX-308 3 to 10 μM): dose-dependent inhibition
